Positions count from the first letter of the chain named.
Legend:
[1] = molecular target: T1, TP A160V/F115A double mutant (Homo sapiens, UniProt P21731, A160V/F115A); experiment: Saturation radioligand binding with [3H] SQ 29,548, membranes; parameters: expressed in transfected cells; host or cells: COS-1 cells (membranes), transient, pMT4; conditions: picomoles of TP per milligram of total membrane protein, mean ± S.E
T1 sequence (P21731 1-343 F115A/A160V): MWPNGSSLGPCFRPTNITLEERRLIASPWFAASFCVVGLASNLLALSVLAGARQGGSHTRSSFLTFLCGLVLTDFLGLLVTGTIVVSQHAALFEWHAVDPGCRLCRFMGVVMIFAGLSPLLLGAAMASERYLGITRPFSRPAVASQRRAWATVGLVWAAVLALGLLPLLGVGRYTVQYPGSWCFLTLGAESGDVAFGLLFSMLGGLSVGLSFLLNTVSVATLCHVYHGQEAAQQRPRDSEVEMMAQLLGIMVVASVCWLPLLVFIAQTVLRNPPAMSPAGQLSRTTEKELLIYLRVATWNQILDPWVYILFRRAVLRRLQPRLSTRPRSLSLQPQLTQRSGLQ
Method: (§1) Amino acid substitutions were introduced into the synthetic TPα gene carried by the expression vector pMT4 as described previously, [29]. DNA sequences of all the mutated genes were verified by automated DNA sequencing. To minimize variations in transfection efficiency, the total amount transfected DNA was kept constant in all cases at 1 µg of DNA per 7×10^5 cells. The wild type TP or mutant genes were expressed in COS-1 cells using a DEAE-dextran based transient transfection method, [29], and in HEK293T cells using lipofectamine 2000 (Invitrogen). Except unless specified, the membranes prepared from COS-1 cells were used for radioligand binding assays and immunoblots. […] The protein concentration in the resuspended membrane pellet was determined using a modified DC protein assay kit from Bio-Rad Laboratories (Hercules, CA).
(§2) These were carried out in Buffer C for 60 min at room temperature, using 2 to 20 µg of membrane protein and different concentrations of [^3H] […] Filter-bound radioactivity was measured using a liquid scintillation counter. Equilibrium dissociation constants (Kd) were determined from saturation isotherms using PRISM software version 5.0 (GraphPad Software Inc, San Diego, CA, USA). The Ki values were calculated from the IC50, using the equation of Cheng and Prusoff by PRISM software version 5.0.

TP F115A mutant = molecular target: T2, TP F115A mutant (Homo sapiens, UniProt P21731, F115A); experiment: as above; parameters: expressed in transfected cells; host or cells: COS-1 cells (membranes), transient, pMT4; conditions: picomoles of TP per milligram of total membrane protein, mean ± S.E
T2 sequence (P21731 1-343 F115A): T1 sequence (P21731 1-343 F115A/A160V) with V160A
Method: as §1, §2

[2] = molecular target: T1, TP A160V/F115A double mutant; experiment: Intracellular calcium mobilization (Fluo-4NW) in transfected HEK293T cells; type: cell-based; parameters: expressed in transfected cells; transient, pMT4; conditions: read-out: EC50 of agonist U46619 (calcium mobilized), transiently transfected HEK293T cells, mean ± S.E
Method: as §1, with “immunoblots. For intracellular calcium determination assays and immunofluorescence imaging, HEK293T cells were used.” for “immunoblots.”
Changes in intracellular calcium were measured by using the fluorescent calcium sensitive dye Fluo-4NW (Invitrogen). […] Dose–response curves were generated and EC50 values calculated by nonlinear regression analysis using PRISM software version 5.0 (GraphPad Software Inc, San Diego, CA) after subtracting the responses of mock-transfected cells stimulated with same concentrations of agonists.

TP A160S mutant = molecular target: T3, TP A160S mutant (Homo sapiens, UniProt P21731, A160S); experiment: Heterologous competition binding, unlabeled U46619 against 4 nM [3H] SQ 29,548; conditions: read-out: Ki of agonist U46619, 4 nM [3H] SQ 29,548, 2 hr room temperature, Cheng-Prusoff from IC50
T3 construct: expressed in transfected cells; HEK293T (calcium assays)
T3 sequence (P21731 1-343 A160S): T1 sequence (P21731 1-343 F115A/A160V) with A115F, V160S
Method: Amino acid substitutions were introduced into the synthetic TPα gene carried by the expression vector pMT4 as described previously, [29]. DNA sequences of all the mutated genes were verified by automated DNA sequencing. To minimize variations in transfection efficiency, the total amount transfected DNA was kept constant in all cases at 1 µg of DNA per 7×10^5 cells. The wild type TP or mutant genes were expressed in COS-1 cells using a DEAE-dextran based transient transfection method, [29], and in HEK293T cells using lipofectamine 2000 (Invitrogen). Except unless specified, the membranes prepared from COS-1 cells were used for radioligand binding assays and immunoblots. For intracellular calcium determination assays and immunofluorescence imaging, HEK293T cells were used. For transient transfections of HEK293T cells using the plasmid pMT4, lipofectamine 2000 (Invitrogen) mediated transfection was used as described by the manufacturer. Membranes were prepared using Buffers A and B and as described previously, [29]. The protein concentration in the resuspended membrane pellet was determined using a modified DC protein assay kit from Bio-Rad Laboratories (Hercules, CA).
These were carried out in Buffer C for 60 min at room temperature, using 2 to 20 µg of membrane protein and different concentrations of [^3H] […] Binding of [^3H] […] Competition binding assays were performed using 4 nM [^3H] […] Binding was terminated by filtering under vacuum on GF/A filters (Millipore). Filter-bound radioactivity was measured using a liquid scintillation counter. Equilibrium dissociation constants (Kd) were determined from saturation isotherms using PRISM software version 5.0 (GraphPad Software Inc, San Diego, CA, USA). The Ki values were calculated from the IC50, using the equation of Cheng and Prusoff by PRISM software version 5.0. Where applicable, statistical significance of the data was evaluated using analysis of variance (ANOVA) and/or unpaired t test.

Row | SMILES | Bmax, binding maximum of the ligand SQ 29,548 for the receptor [1] [pmol/mg] | Bmax, binding maximum of the ligand SQ 29,548 for the receptor (TP F115A mutant) [pmol/mg] | EC50 [2] [nM] | Ki (TP A160S mutant) [nM]
1 | O=C(O)CCC/C=C\C[C@@H]1[C@H](CNNC(=O)Nc2ccccc2)[C@H]2CC[C@@H]1O2 [SQ 29,548] | 2.1 ± 0.4 | 1.8 ± 0.2 |  | 
2 | CCCCC[C@H](O)/C=C/[C@@H]1[C@@H](C/C=C\CCCC(=O)O)[C@H]2CO[C@@H]1C2 [U46619] |  |  | 43.5 ± 1.5 | 1520

From publication PMC3260207, “Site-Directed Mutations and the Polymorphic Variant Ala160Thr in the Human Thromboxane Receptor Uncover a Structural Role for Transmembrane Helix 4” (PLoS ONE, 2012)
